Common to all, as to assay type: cell-based
In experiment [1] the test system is monocarboxylate transporters. As to the kind of experiment: Lactate uptake by 14C-lactate labeling assay. Particulars: SiHa cells, compound one hour, 2 μM 14C-lactate for 12 minutes; read-out: Lactate Consumption (%)/[IC50][14C labeled]. As for the experimental part: Measuring Lactate Uptake by ^14 C-lactate Labeling Assay.
The inhibition of monocarboxylate transporters of the invention was determined using ^14CLactate, and the data are shown in Table II. Cells are maintained in their appropriate growth medium (DMEM medium with 4.5 g/L glucose, 4 mM L-glutamine supplemented with 10% FBS and P/S (growth medium). Cell culture surface of 24-well cell culture plates (BD Bioscience) were aseptically coated with 80 μL poly-lysine (1 mg/mL, Sigma) for 5 mins, then rinsed with sterile cell culture grade water, air-dried for at least 2 hours before introducing cells and medium. SiHa cells were seeded in poly-lysine coated 24-well plate at 500,000 cells/well in growth medium for 6 hours. Replace the growth medium with 1 mL lactate medium (10 mM lactate in base DMEM without sodium pyruvate) for overnight. Cells were rinsed with modified Kreb solution (containing 10 μM L-lactate, without glucose) and then treated with vehicle or increasing concentrations of compounds (0.1, 1, 10, 100 μM) at 37° C. in 1 mL modified Kreb solution (containing 10 μM L-lactate, 0.25% BSA) for one hour. […] After one hour agitation, the radioactivity was measured using Microbeta TriLux. CPM value was recorded and normalized to protein concentration.

For experiment [2], the system named is monocarboxylate transporters. As to the kind of experiment: Lactate consumption assay in tumor cell lines (enzymatic L-Lactate Kit II). Conditions: tumor cells in 10 mM lactate medium, compound 24 hours; concentration not given. On the procedure: Lactate Consumption Assay in Tumor Cell Lines.
Cells are maintained in their appropriate growth medium (DMEM medium with 4.5 g/L glucose, 4 mM L-glutamine supplemented with 10% FBS and P/S (growth medium). Cells (500,000 cells/well) were seeded in 24-well plate in growth medium for 6 hours. Replace the growth medium with 1 mL lactate medium (10 mM lactate in base DMEM without sodium pyruvate) for overnight. Cells were treated with compounds in 1 mL lactate medium for 24 hours. The culture medium was collected and centrifuged at 12,000 rpm for 5 minutes at 4° C. to get rid of any cell debris. An aliquot of 0.5 mL of the supernatant was loaded to a deproteinizing column, centrifuged at 12,000 rpm for 15 minutes at 4° C. The flow-through was collected and stored at -80° C. for future analysis. The amount of lactate in the supernatant was analyzed by enzymatic L-Lactate Kit II (Eton Bioscience Inc.). Briefly, 50 μL of 10 times diluted sample was mixed with 50 μL reaction mixture. Lactic acid is oxidized by enzyme reactions to yield color product, which can be measured in dual modes, either at 570 nm for colorimetric assay or with Ex 530-560/Em 570-595 nm fluorescence assay. And the color or fluorescence intensity is proportional to lactic acid concentrations, therefore the sample lactic acid concentration can be accurately calculated based on the lactic acid standards. […]

Experiment [3] has as its system panel of solid and haemotological tumor cell lines. Briefly: MTS or MTT cell proliferation assay (cytotoxicity of MCT inhibition). Particulars: Homo sapiens; MTS or MTT readout, 72 hours post-dosing; growth medium or 10 mM lactate medium (SiHa); cell line not given. As for the experimental part: MTS or MTT Cell Proliferation Assay
The anti-proliferation effect of MCT inhibition was investigated across a panel of solid and haemotological tumor cell lines. Cells were routinely cultured in their appropriate growth medium. On day 1, between 5,000 -10,000 cells/well were plated into 96-well plates. 100 μL of phosphate buffered saline solution was added to the external wells to prevent media evaporation. Plates were incubated overnight at 37° C. in the presence of 5% CO2. On day 2, dry weight compound stocks were dissolved to a concentration of 20 mM in 100% DMSO. Compounds were further diluted in either growth medium or 10 mM lactate medium (For SiHa cell lines; Basic DMEM, 10% FBS, 10 mM Na-Lactate, 2.2 g/L NaHCO3, no glutamine) to generate a final dose range of 10 nM to 100 μM. Plates were then incubated at 37° C. in the presence of 5% CO2 for a further 72 hours post-dosing. On day 5, 20 μL of CellTiter 96 AQ MTS reagent or MTT was added to each well and the plate was returned to the incubator for 2-4 hours. In case of lactate medium, the medium was replaced by 100 μL of growth medium and 20 μL of CellTiter 96 AQ MTS reagent or replaced the media in cells with 100 uL of growth media containing 10% MTT solution,. MTS or MTT is bioreduced by NADPH or NADH produced by dehydrogenase enzymes in metabolically active cells into a coloured formazan product that is soluble in tissue culture medium. The amount of coloured formazan product is directly proportional to the number of living cells in culture. In the case of MTT, after 4 hr incubation, the media was removed from the plates and the plate was air-dried. Then, 100 uL of DMSO was added to each well, and incubated for 30 mins at room temperature with mild shaking. The absorbance of the plates was read on a Synergy H4 plate reader using […] or 540 nm measurement wavelength. Dose response curves were plotted and IC50 values were calculated using Prism. The IC50 value is equivalent to the concentration of compound that causes 50% inhibition of growth calculated from the compound treated signal to the vehicle treated signal.
On the technique in general: Tetrazolium assays rely on reduction of a dye to a coloured formazan, in cell work by metabolically active cells.

As a reminder, the EC50 is the concentration giving half of the maximal effect. `CC(C)Cn1cc(C(=O)O)c(=O)c2cc(F)c(N(C)Cc3ccccc3)cc21` [Example 1, 7-(benzyl(methyl)amino)-6-fluoro-1-isobutyl-4-oxo-1,4-dihydroquinoline-3-carboxylic acid]: the IC50 in experiment [1] is less than 1000 nM. Also, the “Lactate Consumption [Lactate Kit] (%)/[IC50]” value in experiment [2] came to 86%. Besides, the EC50 in experiment [3] is less than 1000 nM.
Consider `CC(C)Cn1cc(C(=O)O)c(=O)c2cc(F)c(N(C)Cc3cccc(C(F)(F)F)c3)cc21` [Example 3, 6-fluoro-1-isobutyl-7-(methyl(3-(trifluoro-methyl)benzyl)amino)-4-oxo-1,4-dihydroquinoline-3-carboxylic acid], for which the EC50 in experiment [3] is less than 1000 nM.
As for `CC(C)Cn1cc(C(=O)O)c(=O)c2cc(F)c(N(C)Cc3ccc(Cl)cc3)cc21` [Example 4, 7-((4-chlorobenzyl) (methyl)amino)-6-fluoro-1-isobutyl-4-oxo-1,4-dihydro-quinoline-3-carboxylic acid], the EC50 in experiment [3] is less than 1000 nM.
On the same count and under the same terms, in the case of `CC(C)Cn1cc(C(=O)O)c(=O)c2cc(F)c(NCc3cccc(C(F)(F)F)c3)cc21` [Example 5, 6-fluoro-1-isobutyl-4-oxo-7-((3-(trifluoro-methyl)benzyl)amino)-1,4-dihydroquinoline-3-carboxylic acid] it was less than 1000 nM; in that of `CCn1cc(C(=O)O)c(=O)c2cc(F)c(N(C)Cc3ccccc3)cc21` [Example 6, 7-(benzyl(methyl)amino)-1-ethyl-6-fluoro-4-oxo-1,4-dihydroquinoline-3-carboxylic acid], less than 1000 nM; in that of `CC(C)Cn1cc(C(=O)O)c(=O)c2cc(F)c(N(C)Cc3cccc(F)c3)cc21` [Example 7, 6-fluoro-7-((3-fluorobenzyl)(methyl)amino)-1-isobutyl-4-oxo-1,4-dihydro-quinoline-3-carboxylic acid], less than 1000 nM.
The same measure, in the same setting: in the case of `COc1cccc(CN(C)c2cc3c(cc2F)c(=O)c(C(=O)O)cn3CC(C)C)c1` [Example 8, 6-fluoro-1-isobutyl-7-((3-methoxybenzyl) (methyl)amino)-4-oxo-1,4-dihydroquinoline-3-carboxylic acid] it was less than 1000 nM.
In the case of `CC(C)Cn1cc(C(=O)O)c(=O)c2cc(F)c(N(C)CC3CCN(C)CC3)cc21` [Example 9, 6-fluoro-1-isobutyl-7-(methyl((1-methyl-piperidin-4-yl)methyl)amino)-4-oxo-1,4-dihydroquinoline-3-carboxylic acid], the EC50 in experiment [3] was less than 1000 nM.
Same read-out and setting: in the case of `CC(C)Cn1cc(C(=O)O)c(=O)c2cc(F)c(N(C)Cc3cccs3)cc21` [Example 10, 6-fluoro-1-isobutyl-7-(methyl(thiophen-2-ylmethyl)amino)-4-oxo-1,4-dihydro-quinoline-3-carboxylic acid] it was less than 1000 nM; in that of `CC(C)Cn1cc(C(=O)O)c(=O)c2cc(F)c(N(C)C(=O)c3ccccc3)cc21` [Example 11, 6-fluoro-1-isobutyl-7-(N-methylbenzamido)-4-oxo-1,4-dihydro-quinoline-3-carboxylic acid], less than 1000 nM; in that of `COc1cccc(CN(C)c2cc3c(cc2F)c(=O)c(C(=O)O)cn3Cc2ccccc2)c1` [Example 12, 1-benzy1-6-fluoro-7-((3-methoxybenzyl) (methyl)amino)-4-oxo-1,4-dihydroquinoline-3-carboxylic acid], less than 1000 nM.
Still for that read-out and setting: for `Cc1cc(C)n(Cc2cc3c(cc2C(=O)N2CCC2)c(=O)c(C(=O)O)cn3CC(C)C)n1` [Example 15, 6-(azetidine-1-carbonyl)-7-((3,5-dimethyl-1H-pyrazol-1-yl)methyl)-1-isobutyl-4-oxo-1,4-dihydroquinoline-3-carboxylic acid] the value was less than 1000 nM; for `CC(C)n1cc(C(=O)O)c(=O)c2cc(F)c(N(C)Cc3cccnc3)cc21` [Example 16, 6-fluoro-1-isopropyl-7-(methyl(pyridin-3-ylmethyl)amino)-4-oxo-1,4-dihydro-quinoline-3-carboxylic acid], less than 1000 nM.
On the same count and under the same terms, in the case of `CC(C)n1cc(C(=O)O)c(=O)c2cc(F)c(N(C)Cc3ccccc3)cc21` [Example 17, 7-(benzyl(methyl)amino)-6-fluoro-1-isopropyl-4-oxo-1,4-dihydro-quinoline-3-carboxylic acid] it was less than 1000 nM; in that of `CC(C)n1cc(C(=O)O)c(=O)c2cc(F)c(N(C)Cc3ccc(F)cc3)cc21` [Example 18, 6-fluoro-7-((4-fluorobenzyl)(methyl)amino)-1-isopropyl-4-oxo-1,4-dihydro-quinoline-3-carboxylic acid], less than 1000 nM.

Values taken from patent US10766863B2, “Monocarboxylate transport modulators and uses thereof” (NIROGYONE THERAPEUTICS, INC., priority 2014, dated 2020).
